Measurements from US20060111423A1, “Use of diindolylmethane-related indoles and growth factor receptor inhibitors for the treatment of human cytomegalovirus-associated disease” (priority 2004, published 2006).

Tests used:
[1] = tested on: TRAMP-C2 prostate cancer cells; assay type: in vivo; details: C57BL/6 mice, gavage once daily 5 days per week, 4 weeks
Protocol: METHODS: TRAMP-C2 cells, a mouse PC cell line are obtained from the American Type Culture Collection (Rockville, Md.). Six week old male C57BL/6 mice are purchased from Harlan Laboratories (Harlan, USA). TRAMP-C2 cells are suspended in media and aliquots are injected into the flank of male C57BL/6 mice using a 27 gauge needle. Two weeks after tumor transplantation when tumors appear, mice are divided in six groups treated as indicated:
Animals are dosed by gavage once daily, 5 days per week. Tumor volumes are measured weekly for 4 weeks following transplantation using calipers. Later, the tumors are removed, their final weights and volumes are measured. […] Tumor volumes in mm^2 are determined during the study using the formula π/6×larger diameter×(smaller diameter)^2. The data are expressed as the increase or decrease in tumor volume in mm^3. Histological studies are performed to assess the contribution of apotosis promotion in the reduction of tumor volume in treated groups.

Towne strain HCMV = assay: HCMV titer reduction assay in HEL fibroblasts; assay type: cell-based, Human Cytomegalovirus; details: HEL fibroblasts infected with HCMV, supernatant day 6 postinfection, plaque assay
Protocol: Cell culture studies are performed to establish activity of DIM-related indoles alone and in combination with GFR's as inhibitors of HCMV replication in an in vitro model relevant to human infection.
Cell culture and viral infection. Human embryonic lung (HEL) fibroblasts are cultured in Eagle's minimal essential media (EMEM) (Gibco, BRL) supplemented with 10% fetal bovine serum (FBS) plus antibiotics.
Towne strain HCMV (passages 36 to 40) is propagated in HEL fibroblasts as previously described (Kowalik et al., 1993, Proc. Natl. Acad. Sci. USA 90:1107-1111).
For infection, cells are grown to confluence and then are serum starved for 48 h in minimal essential media (MEM) plus antibiotics. Cells are infected with HCMV that had been purified through a sucrose cushion to eliminate cytokines and growth factor contamination. Seeding of cells using a multiplicity of infection of 2-5 PFU per cell is used.
At the indicated time after infection, cells are washed once and then are maintained in MEM plus antibiotics until they are harvested. Cells are pretreated for 1 h with the listed compound or combinations of compounds prior to infection. […]
Titer reduction assay. The levels of active virus during the culture period are determined using a Titer Reduction Assay. […] HCMV plaque numbers are scored under an inverted microscope.

SMILES | tumor growth (tumor volumes compared to control group) [1] | viral titers (Towne strain HCMV)
COc1cc2ncnc(Nc3ccc(F)c(Cl)c3)c2cc1OCCCN1CCOCC1 [Gefitinib, N-(3-chloro-4-fluorophenyl)-7-methoxy-6-(3-morpholinopropoxy)quinazolin-4-amine, reference compound] | inhibition of tumor growth | –
c1ccc2c(Cc3c[nH]c4ccccc34)c[nH]c2c1 [Diindolylmethane, 3,3′-diindolylmethane] | inhibition of tumor growth | significant decrease
